Experimental data from patent US20250084080A1, “CRYSTALLINE AND SALT FORMS OF AN NLRP3 INHIBITOR” (BioAge Labs, Inc., priority 2023, published 2025).

Legend:
Assay type in all cases: physicochemical
[1] = Solubility at 37° C. in buffers and biorelevant media, XRPD of residual solid; details: for solubility at 2 h / solubility at 24 h: thermodynamic from solid
Description: Solubility of BAL-0748 free form Pattern B was investigated in pH 1.2 HCl buffer, pH 4.5 50 mM acetate buffer, pH 6.8 50 mM phosphate buffer, water, pH 1.6 FaSSGF, pH 6.5 FaSSIF-v1, pH 5.0 FeSSIF-v1 and 2% HPMC+1% Pluronic F68 in pH 4.5 50 mM acetate buffer at 37° C. for 2 h and 24 h. Residual solids after the solubility test were analyzed by XRPD.
Solubility of the free form Pattern A, the HCl salt Pattern A, the phosphate salt Pattern A, and the sodium salt Pattern A was measured in pH 1.2 HCl buffer, pH 4.5 acetate buffer (50 mM), pH 6.8 phosphate buffer (50 mM), water, pH 1.6 FaSSGF, pH 6.5 FaSSIF-v1, pH 5.0 FeSSIF-v1, and 2% HPMC+1% Pluronic F68 in pH 4.5 acetate buffer (50 mM) at 37° C. for 2 hours and 24 hours.
10.4 mg of the free form Pattern A, 10.0 mg of the free form Pattern B, 10.8 mg of the HCl salt Pattern A, 12.2 mg of the phosphate salt Pattern A, or 10.5 mg of the sodium salt Pattern A was weighed into a 20 mL glass vial, respectively. 5 mL of solubility medium was added. The salt amount used was equivalent to 10 mg anhydrous free form. Obtained suspensions were stirred at 37° C. at 400 rpm and sampled at 2 hours and at 24 hours. The samples were centrifuged at 37° C. at 14,000 rpm for 5 min. Supernatants were analyzed by HPLC and PH meter for solubility and pH value, respectively. Residual solids (wet cakes) from the 24 hours samples were also characterized by XRPD to determine physical form.

[2] = Hygroscopicity by dynamic vapor sorption (DVS) at 25° C.; details: for Desorp. (%) / Sorp. (%): DVS 25° C.
Description: Dynamic vapor sorption (DVS) was performed on an Intrinsic, Advantage or Adventure with an oven temperature of 25° C. using water as a solvent. The sample mass was about 5-10 mg using the following method: • Cycle: 40-0-95-0-40% RH • Stage Step: 10% • Equilibrium: 0.002 dm/dt (%/min) • Minimum dm/dt stability duration: 60 min • Maximum dm/dt stage time: 360 min. Hygroscopicity of free form Pattern B was evaluated by dynamic vapor sorption (DVS) test at 25° C. […] It absorbed about 0.8% water at 80% RH at 25° C.

[3] = Bulk stability (solid state, 1 week; HPLC, XRPD, IC, color); parameters: key to CL (color): A: no change of color; B: slight discoloration; C: medium discoloration; D: strong discoloration; details: for Bulk (HPLC) Purity / Bulk (XRPD) / CL (color): Solid state
Description: Bulk stability of free form Pattern B was evaluated at 25° C./92.5% RH in an open container, at 40° C./75% RH in an open container and at 60° C. in a tight container over 1 week.

[4] = aqueous buffer, pH 4.5 acetate buffer (50 mM), 37° C.
[5] = aqueous buffer, pH 6.8 phosphate buffer (50 mM), 37° C.
[6] = aqueous with cosolvent or surfactant or cyclodextrin, 2% HPMC + 1% Pluronic F68 in pH 4.5 acetate buffer (50 mM), 37° C.
[7] = fassgf or other biorelevant, FaSSGF, pH 1.6, 37° C.
[8] = simulated gastric fluid, pH 1.2 HCl buffer, 37° C.
[9] = 25° C./92.5% RH open, 40° C./75% RH open, 60° C. tight container

In the case of CCOc1cc(C(=O)N(C)Cc2cnc(CO)c3cn[nH]c23)ccc1-c1cc(F)cc(F)c1.O=P(O)(O)O [Phosphate salt Pattern A, 2-ethoxy-3′,5′-difluoro-N-((4-(hydroxymethyl)-1H-pyrazolo[4,3-c]pyridin-7-yl)methyl)-N-methyl-[1,1′-biphenyl]-4-carboxamide phosphoric acid salt], the “pH of supernatant at 24 h” value ([1]; 2% HPMC + 1% Pluronic F68 in pH 4.5 acetate buffer (50 mM), 37° C.) is reported as “(4.5)”, the “Solubility compared with the free form Pattern A” value ([1]; 2% HPMC+1% Pluronic F68 in acetate buffer (pH 4.5)) is reported as “comparable solubility” and the “pH of supernatant at 24 h” value ([1]; FaSSGF, pH 1.6, 37° C.) is reported as “(1.6)”. The “pH of supernatant at 24 h” value ([1]; FaSSIF-v1, pH 6.5, 37° C.) was “(6.2)”, the “pH of supernatant at 24 h” value ([1]; FeSSIF-v1, pH 5.0, 37° C.) was “(4.9)” and the “pH of supernatant at 24 h” value ([1]; Water, 37° C.) was “(2.6)”. For the same compound, the solubility at 2 h [1, 4] was 9.4 µg/mL, the solubility at 24 h [1, 4] was 11.8 µg/mL and the solubility at 2 h [1, 5] was 2.4 µg/mL. For the same compound, the solubility at 24 h [1, 5] was 2.9 µg/mL, the solubility at 2 h [1, 6] was 16.4 µg/mL and the solubility at 24 h [1, 6] was 17.9 µg/mL. For the same compound, the solubility at 2 h [1, 7] was 710 µg/mL, the solubility at 24 h [1, 7] was 653 µg/mL and the “pH of supernatant at 24 h” value ([1]; pH 1.2 HCl buffer, 37° C.) was “(1.2)”. For the same compound, the “pH of supernatant at 24 h” value ([1]; pH 4.5 acetate buffer (50 mM), 37° C.) was “(4.4)”, the “pH of supernatant at 24 h” value ([1]; pH 6.8 phosphate buffer (50 mM), 37° C.) was “(6.7)” and the “Solubility compared with the free form Pattern A” value ([1]; pure water) was “obviously higher solubility”. The solubility at 2 h [1, 8] was 402 µg/mL, the solubility at 24 h [1, 8] was 390 µg/mL and the solubility at 2 h ([1]; FaSSIF-v1, pH 6.5, 37° C.) was 8.4 µg/mL. The solubility at 24 h ([1]; FaSSIF-v1, pH 6.5, 37° C.) was 13.7 µg/mL, the solubility at 2 h ([1]; FeSSIF-v1, pH 5.0, 37° C.) was 140 µg/mL and the solubility at 24 h ([1]; FeSSIF-v1, pH 5.0, 37° C.) was 159 µg/mL. For the same compound, the solubility at 2 h ([1]; Water, 37° C.) was 384 µg/mL, the solubility at 24 h ([1]; Water, 37° C.) was 442 µg/mL and the “Desorp. (%)” value ([2]; 0% RH, 1st desorption) was 0.03%. The “Sorp. (%)” value ([2]; 0% RH, 1st sorption) was 0.03%, the “Desorp. (%)” value ([2]; 0% RH, 2nd desorption) was 0.00% and the “Sorp. (%)” value ([2]; 0% RH, 2nd sorption) was 0.00%. The “Desorp. (%)” value ([2]; 10% RH, 1st desorption) was 0.12%, the “Sorp. (%)” value ([2]; 10% RH, 1st sorption) was 0.11% and the “Desorp. (%)” value ([2]; 10% RH, 2nd desorption) was 0.09%. The “Sorp. (%)” value ([2]; 10% RH, 2nd sorption) was 0.09%, the “Desorp. (%)” value ([2]; 20% RH, 1st desorption) was 0.16% and the “Sorp. (%)” value ([2]; 20% RH, 1st sorption) was 0.15%. For the same compound, the “Desorp. (%)” value ([2]; 20% RH, 2nd desorption) was 0.14%, the “Sorp. (%)” value ([2]; 20% RH, 2nd sorption) was 0.13% and the “Desorp. (%)” value ([2]; 30% RH, 1st desorption) was 0.20%. The “Sorp. (%)” value ([2]; 30% RH, 1st sorption) was 0.18%, the “Desorp. (%)” value ([2]; 30% RH, 2nd desorption) was 0.18% and the “Sorp. (%)” value ([2]; 30% RH, 2nd sorption) was 0.17%. For the same compound, the “Desorp. (%)” value ([2]; 40% RH, 1st desorption) was 0.24%, the “Sorp. (%)” value ([2]; 40% RH, 1st sorption) was 0.23% and the “Desorp. (%)” value ([2]; 40% RH, 2nd desorption) was 0.23%. For the same compound, the “Sorp. (%)” value ([2]; 40% RH, 2nd sorption) was 0.21%, the “Sorp. (%)” value ([2]; 50% RH, 1st sorption) was 0.27% and the “Desorp. (%)” value ([2]; 50% RH, 2nd desorption) was 0.29%. For the same compound, the “Sorp. (%)” value ([2]; 60% RH, 1st sorption) was 0.32%, the “Desorp. (%)” value ([2]; 60% RH, 2nd desorption) was 0.35% and the “Sorp. (%)” value ([2]; 70% RH, 1st sorption) was 0.37%. The “Desorp. (%)” value ([2]; 70% RH, 2nd desorption) was 0.41%, the “Sorp. (%)” value ([2]; 80% RH, 1st sorption) was 0.45% and the “Desorp. (%)” value ([2]; 80% RH, 2nd desorption) was 0.48%. For the same compound, the “Sorp. (%)” value ([2]; 90% RH, 1st sorption) was 0.61%, the “Desorp. (%)” value ([2]; 90% RH, 2nd desorption) was 0.63% and the “Sorp. (%)” value ([2]; 95% RH, 1st sorption) was 0.82%. The “Desorp. (%)” value ([2]; 95% RH, 2nd desorption) was 0.82%, the “XRPD after DVS test” value ([2]; DVS at 25° C.) was “No form change” and the “Water absorbed at 80% RH” value ([2]; DVS at 25° C., 80% RH) was “It absorbed 0.5%”. The “Bulk stability, chemical and physical” value [3, 9] was “chemically and physically stable”, the “Degradation by HPLC” value [3, 9] was “no obvious degradation” and the “Form change by XRPD” value [3, 9] was “no form change”. The “Bulk (HPLC) Purity” value ([3]; 25° C./92.5% RH, open) was 98.2%, the “Bulk (XRPD)” value ([3]; 25° C./92.5% RH, open) was “No form change” and the “CL (color)” value ([3]; 25° C./92.5% RH, open) was “A”. For the same compound, the “Bulk (HPLC) Purity” value ([3]; 40° C./75% RH, open) was 98.2%, the “Bulk (XRPD)” value ([3]; 40° C./75% RH, open) was “No form change” and the “CL (color)” value ([3]; 40° C./75% RH, open) was “A”. The “Bulk (HPLC) Purity” value ([3]; 60° C., closed) was 98.2%, the “Bulk (XRPD)” value ([3]; 60° C., closed) was “No form change” and the “CL (color)” value ([3]; 60° C., closed) was “A”.
